Data reported in US8247211B2, “Glycopeptide antibiotics” (American Cyanamid Company, priority 2001, dated 2012).

Key:
Assay in all cases: In vitro antibacterial evaluation: minimum inhibitory concentration (MIC), broth dilution method
Format in all cases: cell-based
Escherichia coli = details: 18 hours at 35° C.
Summary of the method: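 NCCLS M7-A2 broth dilution with Mueller-Hinton II, testing 64-0.06 μg/mL antibiotic against 5×10^5 CFU/mL inocula. Test strains include recent methicillin-, penicillin- or vancomycin-resistant clinical isolates. MIC is the lowest concentration preventing growth.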

Streptococcus sp. = details: 18 hours at 35° C.
Summary of the method: (§1)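 An MIC is reported for each organism as the least concentration giving inhibition, using broth dilution over 64-0.06 μg/mL with a 5×10^5 CFU/mL inoculum.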

Enterococcus sp. = details: 18 hours at 35° C.
Summary of the method: as §1

Staphylococcus sp. = tested on: Staphylococcus sp.
Summary of the method: as §1

[1] = broth dilution, 5×10^5 CFU/mL, 18 hours at 35° C.
[2] = broth dilution, inoculum 5×10^5 CFU/mL

CC(c1ccccc1)C1NC(=O)CNC(=O)C(CO)NC(=O)C(C(O)C2CNC(=N)N2C2OC(CO)C(O)C(O)C2O)NC(=O)C(C(O)C2CNC(=N)N2)NC(=O)C(Cc2ccc(OC3OC(CO)C(OC4OC(CO)C(O)C5OC(CC67CC8CC(CC(C8)C6)C7)OC45)C(O)C3O)cc2)NC1=O (stereo not drawn) [Example 128]
4 µg/mL: MIC Escherichia coli (GC 4560) (Escherichia coli; 5×10^5 CFU/mL) | MIC Enterococccus avium (GC 4558) (Enterococcus sp.; broth dilution, 5×10^5 CFU/mL) | MIC Enterococccus faecalis (ATCC 29212) (Enterococcus sp.; broth dilution, 5×10^5 CFU/mL) | MIC Enterococccus faecalis (GC 2691) (Enterococcus sp.; broth dilution, 5×10^5 CFU/mL) | MIC Enterococccus faecalis (GC 3059) (Enterococcus sp.; broth dilution, 5×10^5 CFU/mL) | MIC Enterococccus faecalis (GC 4552) (Enterococcus sp.; broth dilution, 5×10^5 CFU/mL) | MIC Enterococccus faecalis (GC 4553) (Enterococcus sp.; broth dilution, 5×10^5 CFU/mL) | MIC Enterococccus faecalis (GC 4554) (Enterococcus sp.; broth dilution, 5×10^5 CFU/mL) | MIC Enterococccus faecalis (GC 6189) (Enterococcus sp.; broth dilution, 5×10^5 CFU/mL) | MIC Enterococccus faecium (GC 2243) (Enterococcus sp.; broth dilution, 5×10^5 CFU/mL) | MIC Enterococccus faecium (GC 4556) (Enterococcus sp.; broth dilution, 5×10^5 CFU/mL) | MIC Enterococccus faecium (GC 4557) (Enterococcus sp.; broth dilution, 5×10^5 CFU/mL) | MIC Enterococcus faecalis (GC 2242) (Enterococcus sp.; broth dilution, 5×10^5 CFU/mL) | MIC Coagulase Negative Staphylococcus (GC 4547) (Staphylococcus sp.; [1]) | MIC Coagulase Negative Staphylococcus (GC 4551) (Staphylococcus sp.; [1]) | MIC Staphylococcus aureus (GC 1131) (Staphylococcus sp.; strain GC 1131) | MIC Staphylococcus aureus (GC 1131) (Staphylococcus sp.; strain GC 1131, broth dilution, 18 hours at 35° C.) | MIC Staphylococcus aureus (GC 4544) (Staphylococcus sp.; strain GC 4544) | MIC Staphylococcus aureus (GC 4544) (Staphylococcus sp.; strain GC 4544, broth dilution, 18 hours at 35° C.) | MIC Coagulase Negative Staphylococcus (GC 4547) (Staphylococcus sp.; strain GC 4547, broth dilution, 18 hours at 35° C.) | MIC Coagulase Negative Staphylococcus (GC 4551) (Staphylococcus sp.; strain GC 4551, broth dilution, 18 hours at 35° C.)
32 µg/mL: MIC Escherichia coli (ATCC 25922) (Escherichia coli; 5×10^5 CFU/mL) | MIC Escherichia coli (GC 4559) (Escherichia coli; 5×10^5 CFU/mL)
2 µg/mL: MIC Coagulase Negative Staphylococcus (GC 4548) (Staphylococcus sp.; [1]) | MIC Coagulase Negative Staphylococcus (GC 4549) (Staphylococcus sp.; [1]) | MIC Coagulase Negative Staphylococcus (GC 6257) (Staphylococcus sp.; [1]) | MIC Staphylococcus aureus-SMITH (GC 4543) (Staphylococcus sp.; [1]) | MIC Staphylococcus haemolyticus (GC 4546) (Staphylococcus sp.; [1]) | MIC Staphylococcus aureus (ATCC 29213) (Staphylococcus sp.; strain ATCC 29213) | MIC Staphylococcus aureus (ATCC 29213) (Staphylococcus sp.; strain ATCC 29213, broth dilution, 18 hours at 35° C.) | MIC Staphylococcus aureus (GC 3051) (Staphylococcus sp.; strain GC 3051) | MIC Staphylococcus aureus (GC 3051) (Staphylococcus sp.; strain GC 3051, broth dilution, 18 hours at 35° C.) | MIC Staphylococcus aureus (GC 3053) (Staphylococcus sp.; strain GC 3053) | MIC Staphylococcus aureus (GC 3053) (Staphylococcus sp.; strain GC 3053, broth dilution, 18 hours at 35° C.) | MIC Staphylococcus aureus (GC 4541) (Staphylococcus sp.; strain GC 4541) | MIC Staphylococcus aureus (GC 4541) (Staphylococcus sp.; strain GC 4541, broth dilution, 18 hours at 35° C.) | MIC Staphylococcus aureus (GC 4542) (Staphylococcus sp.; strain GC 4542) | MIC Staphylococcus aureus (GC 4542) (Staphylococcus sp.; strain GC 4542, broth dilution, 18 hours at 35° C.) | MIC Staphylococcus aureus-SMITH (GC 4543) (Staphylococcus sp.; strain GC 4543, broth dilution, 18 hours at 35° C.) | MIC Staphylococcus aureus (GC 4545) (Staphylococcus sp.; strain GC 4545) | MIC Staphylococcus aureus (GC 4545) (Staphylococcus sp.; strain GC 4545, broth dilution, 18 hours at 35° C.) | MIC Staphylococcus haemolyticus (GC 4546) (Staphylococcus sp.; strain GC 4546, broth dilution, 18 hours at 35° C.) | MIC Coagulase Negative Staphylococcus (GC 4548) (Staphylococcus sp.; strain GC 4548, broth dilution, 18 hours at 35° C.) | MIC Coagulase Negative Staphylococcus (GC 4549) (Staphylococcus sp.; strain GC 4549, broth dilution, 18 hours at 35° C.) | MIC Coagulase Negative Staphylococcus (GC 6257) (Staphylococcus sp.; strain GC 6257, broth dilution, 18 hours at 35° C.)
<0.06 µg/mL: MIC Streptococcus pneumoniae (GC 1894) (Streptococcus sp.; broth dilution, 5×10^5 CFU/mL)
0.12 µg/mL: MIC Streptococcus pneumoniae (GC 4565) (Streptococcus sp.; broth dilution, 5×10^5 CFU/mL)
0.5 µg/mL: MIC Streptococcus pyogenes (GC 4563) (Streptococcus sp.; broth dilution, 5×10^5 CFU/mL)
0.25 µg/mL: MIC Streptococcus agalactiae (GC 4564) (Streptococcus sp.; broth dilution, 5×10^5 CFU/mL) | MIC Streptococcus pneumonine (ATCC 6301) (Streptococcus sp.; broth dilution, 5×10^5 CFU/mL)

COc1ccc(COCC2OC(OC3C(CO)OC(Oc4ccc(CC5NC(=O)C(C(C)c6ccccc6)NC(=O)CNC(=O)C(CO)NC(=O)C(C(O)C6CNC(=N)N6C6OC(CO)C(O)C(O)C6O)NC(=O)C(C(O)C6CNC(=N)N6)NC5=O)cc4)C(O)C3O)C(O)C(O)C2O)cc1 (stereo not drawn) [Example 232, Cyclo[glycyl-β-methylphenylalanyl-O-[4-O-[6-O-(4-methoxybenzyl)hexopyranosyl]hexopyranosyl]tyrosyl-3-(2-iminoimidazolidin-4-yl)seryl-3-(3-hexopyranosyl-2-iminoimidazolidin-4-yl)serylseryl]]
0.5 µg/mL: MIC Streptococcus pneumoniae (ATCC 6301) (Streptococcus sp.; Streptococcus pneumoniae (ATCC 6301)) | MIC Streptococcus pneumoniae (GC 1894) (Streptococcus sp.; Streptococcus pneumoniae (GC 1894)) | MIC Streptococcus pneumoniae (ATCC 6301) (Streptococcus sp.; [2]) | MIC Streptococcus pneumoniae (GC 1894) (Streptococcus sp.; [2])
16 µg/mL: MIC Enterococcus faecalis (GC 2242) (Enterococcus sp.; Enterococcus faecalis (GC 2242)) | MIC Enterococcus faecium (GC 2243) (Enterococcus sp.; Enterococcus faecium (GC 2243)) | MIC Enterococcus faecalis (GC 2242) (Enterococcus sp.; [2]) | MIC Enterococcus faecium (GC 2243) (Enterococcus sp.; [2])
64 µg/mL: MIC Escherichia coli (GC 4559) (Escherichia coli; Escherichia coli (GC 4559)) | MIC Enterococcus faecalis (GC 6189) (Enterococcus sp.; Enterococcus faecalis (GC 6189)) | MIC Enterococcus faecalis (GC 6189) (Enterococcus sp.; [2])
4 µg/mL: MIC Enterococcus faecium (GC 4557) (Enterococcus sp.; Enterococcus faecium (GC 4557)) | MIC Enterococcus faecium (GC 4557) (Enterococcus sp.; [2]) | MIC Coagulase Negative Staphylococcus (GC 4551) (Staphylococcus sp.; Coagulase Negative Staphylococcus (GC 4551), 18 hours at 35° C.) | MIC Staphylococcus aureus (ATCC 29213) (Staphylococcus sp.; Staphylococcus aureus (ATCC 29213), 18 hours at 35° C.) | MIC Staphylococcus aureus (GC 1131) (Staphylococcus sp.; Staphylococcus aureus (GC 1131), 18 hours at 35° C.) | MIC Staphylococcus aureus (GC 3051) (Staphylococcus sp.; Staphylococcus aureus (GC 3051), 18 hours at 35° C.) | MIC Staphylococcus aureus (GC 4541) (Staphylococcus sp.; Staphylococcus aureus (GC 4541), 18 hours at 35° C.) | MIC Staphylococcus aureus (GC 4542) (Staphylococcus sp.; Staphylococcus aureus (GC 4542), 18 hours at 35° C.) | MIC Staphylococcus aureus (GC 4544) (Staphylococcus sp.; Staphylococcus aureus (GC 4544), 18 hours at 35° C.) | MIC Staphylococcus aureus (GC 4545) (Staphylococcus sp.; Staphylococcus aureus (GC 4545), 18 hours at 35° C.) | MIC Staphylococcus aureus-SMITH (GC 4543) (Staphylococcus sp.; Staphylococcus aureus-SMITH (GC 4543), 18 hours at 35° C.)
32 µg/mL: MIC Enterococcus avium (GC 4558) (Enterococcus sp.; Enterococcus avium (GC 4558)) | MIC Enterococcus faecalis (ATCC 29212) (Enterococcus sp.; Enterococcus faecalis (ATCC 29212)) | MIC Enterococcus faecalis (GC 2691) (Enterococcus sp.; Enterococcus faecalis (GC 2691)) | MIC Enterococcus faecalis (GC 3059) (Enterococcus sp.; Enterococcus faecalis (GC 3059)) | MIC Enterococcus faecalis (GC 4552) (Enterococcus sp.; Enterococcus faecalis (GC 4552)) | MIC Enterococcus faecalis (GC 4553) (Enterococcus sp.; Enterococcus faecalis (GC 4553)) | MIC Enterococcus faecalis (GC 4554) (Enterococcus sp.; Enterococcus faecalis (GC 4554)) | MIC Enterococcus faecium (GC 4556) (Enterococcus sp.; Enterococcus faecium (GC 4556)) | MIC Enterococcus avium (GC 4558) (Enterococcus sp.; [2]) | MIC Enterococcus faecalis (ATCC 29212) (Enterococcus sp.; [2]) | MIC Enterococcus faecalis (GC 2691) (Enterococcus sp.; [2]) | MIC Enterococcus faecalis (GC 3059) (Enterococcus sp.; [2]) | MIC Enterococcus faecalis (GC 4552) (Enterococcus sp.; [2]) | MIC Enterococcus faecalis (GC 4553) (Enterococcus sp.; [2]) | MIC Enterococcus faecalis (GC 4554) (Enterococcus sp.; [2]) | MIC Enterococcus faecium (GC 4556) (Enterococcus sp.; [2])
8 µg/mL: MIC Staphylococcus aureus (GC 3053) (Staphylococcus sp.; Staphylococcus aureus (GC 3053), 18 hours at 35° C.)
1 µg/mL: MIC Streptococcus pneumoniae (GC 4565) (Streptococcus sp.; Streptococcus pneumoniae (GC 4565)) | MIC Streptococcus pneumoniae (GC 4565) (Streptococcus sp.; [2]) | MIC Coagulase Negative Staphylococcus (GC 4549) (Staphylococcus sp.; Coagulase Negative Staphylococcus (GC 4549), 18 hours at 35° C.)
2 µg/mL: MIC Escherichia coli (GC 4560) (Escherichia coli; Escherichia coli (GC 4560)) | MIC Streptococcus agalactiae (GC 4564) (Streptococcus sp.; Streptococcus agalactiae (GC 4564)) | MIC Streptococcus pyogenes (GC 4563) (Streptococcus sp.; Streptococcus pyogenes (GC 4563)) | MIC Streptococcus agalactiae (GC 4564) (Streptococcus sp.; [2]) | MIC Streptococcus pyogenes (GC 4563) (Streptococcus sp.; [2]) | MIC Coagulase Negative Staphylococcus (GC 4547) (Staphylococcus sp.; Coagulase Negative Staphylococcus (GC 4547), 18 hours at 35° C.) | MIC Coagulase Negative Staphylococcus (GC 4548) (Staphylococcus sp.; Coagulase Negative Staphylococcus (GC 4548), 18 hours at 35° C.) | MIC Coagulase Negative Staphylococcus (GC 6257) (Staphylococcus sp.; Coagulase Negative Staphylococcus (GC 6257), 18 hours at 35° C.) | MIC Staphylococcus haemolyticus (GC 4546) (Staphylococcus sp.; Staphylococcus haemolyticus (GC 4546), 18 hours at 35° C.)
>64 µg/mL: MIC Escherichia coli (ATCC 25922) (Escherichia coli; Escherichia coli (ATCC 25922))
